Consider two compounds from US20240008482A1, “METHOD OF IN[…] VIRUS USING A GLUT[…] COMPOSITION” (priority 2021, published 2024).

In one test the test system is HCoV-229E. The following applies: 2% glutaraldehyde; cited from earlier work.
Another test has as its system SARS-CoV (Isolate FFM-1). To be noted: cited from earlier work.
In another test the test system is SARS-CoV (Hanoi strain). To be noted: cited from earlier work.
In the next test the test system is poliovirus type 1. In kind it is cell-based.
Another test deals with adenovirus type 5. In kind it is cell-based.
In another test the test system is MNV. The format is cell-based, Murine Norovirus (MNV).

The structures appear in SMILES notation. Where only a bound is given, the exact number is not on record here.

`O=CCCCC=O` [glutaraldehyde]: in the test on HCoV-229E, the “effectiveness against the virus” value is given as “effective”. In addition, the “time to inactivate the virus” value was 2 min with SARS-CoV (Isolate FFM-1) and 5 min in the test on SARS-CoV (Hanoi strain).
As for `C=O` [formaldehyde], the “reduction of viral titre achieved” value in the test on poliovirus type 1 and in the test with MNV was less than 4 log10 each time. The “time after which a 4 log10 reduction is achieved” value with adenovirus type 5 was 30 minutes.
